Source: patent publication US11879140B2, “P21 mRNA targeting DNAzymes” (1E Therapeutics Ltd., priority 2020, dated 2024)
[invdT] = inverted (3'-3') thymidine

Test system: healthy C57/B6 mice
Assay: In-vivo safety of DNAzyme in mice
Procedure: 8 weeks old male and female C57/BL6 were treated intranasally with DNAzyme 1670 for 14 days. DNAzyme was administered in three concentrations: 40, 200 and 1000 μg. PBS treated mice served as control. Body weight, viability, clinical signs and behavior were monitored daily. On day 14, blood was collected using cardiac puncture and mice were sacrificed thereafter. Blood analyses were performed by AML (Central Lab Services). Hematology was performed using Advia-2120 (Siemens Healthineers). Biochemistry was performed using COBAS® 6000 (Roche Diagnostics).

DNAzyme 1670 comprising a 3′Inverted dT: DNAzyme 1670 (SEQ ID NO: 54) with a 3′ inverted dT modification (DNA GGGAAAGGAGGCTAGCTACAACGAAAGGGGGAG; DNA, all phosphodiester, 3' [invdT], methylation of C not given here; further chemistry not fully specified)
blood tests: complete blood count and biochemistry parameters (2 week endpoint (FIGS. 13G-O)): safe profile
signs of pain or distress (40, 200, 1000 micrograms intranasally daily for 2 weeks): no obvious signs of pain or distress
body weight between groups (40, 200, 1000 micrograms intranasally daily for 2 weeks (FIG. 13F)): no significant differences
